Results from PubChem BioAssay AID332 (DTP/NCI, 2004).
Where “and” joins values, the source holds several entries; their conditions need not be identical. Equal entries are not always repeated. Inconclusive results are not listed.

System: mice, ADJ-PC-20 plasma cell tumor sc, T/C %
Experiment: NCI In Vivo Anticancer Drug Screen. Data for tumor model ADJ-PC-20 Plasma Cell (subcutaneous) in unknown mice
Conditions: endpoint: mean tumor weight, higher = larger tumour
Procedure: The antitumor activity of compounds was measured in mice bearing transplantable tumors. Survival or tumor size were measured and the results are expressed as the measurement made in the treated group (T) divided by the measurement made in the vehicle treated control group (C). The tumor model used in this assay is ADJ-PC-20 Plasma Cell (subcutaneous) in unknown mice

[1] = dose: 0.04 mg/kg/injection, schedule: Q01DX010 (ip), vehicle: other
[2] = dose: 0.08 mg/kg/injection, schedule: Q01DX010 (ip), vehicle: other
[3] = dose: 12.5 mg/kg/injection, schedule: Q01DX010 (ip), vehicle: carboxymethylcellulose (CMC)
[4] = dose: 25.0 mg/kg/injection, schedule: Q01DX010 (ip), vehicle: carboxymethylcellulose (CMC)
[5] = dose: 50.0 mg/kg/injection, schedule: Q01DX010 (ip), vehicle: carboxymethylcellulose (CMC)
[6] = dose: 500.0 mg/kg/injection, schedule: Q01DX010 (ip), vehicle: carboxymethylcellulose (CMC)
[7] = dose: 1000.0 mg/kg/injection, schedule: Q01DX010 (ip), vehicle: carboxymethylcellulose (CMC)
[8] = dose: 6.25 mg/kg/injection, schedule: Q01DX010 (ip), vehicle: carboxymethylcellulose (CMC)
[9] = dose: 100.0 mg/kg/injection, schedule: Q01DX010 (ip), vehicle: carboxymethylcellulose (CMC)
[10] = dose: 0.63 mg/kg/injection, schedule: Q01DX010 (ip), vehicle: carboxymethylcellulose (CMC)
[11] = dose: 1.25 mg/kg/injection, schedule: Q01DX010 (ip), vehicle: carboxymethylcellulose (CMC)

CN(Cc1cnc2nc(N)nc(N)c2n1)c1ccc(C(=O)N[C@@H](CCC(=O)O)C(=O)O)cc1
T/C [1]: 117 % of control | T/C [2]: 107 % of control | T/C (dose: 0.15 mg/kg/injection, schedule: Q01DX010 (ip), vehicle: other): 78 % of control | T/C (dose: 0.31 mg/kg/injection, schedule: Q01DX011 (ip), vehicle: other): 46 % of control | T/C (dose: 0.62 mg/kg/injection, schedule: Q01DX010 (ip), vehicle: other): 68 % of control and 89 % of control | T/C (dose: 0.62 mg/kg/injection, schedule: Q01DX011 (ip), vehicle: other): 59 % of control | T/C (dose: 0.63 mg/kg/injection, schedule: Q01DX010 (ip), vehicle: other): 88 % of control and 107 % of control

CC1CCOS(=O)O1 (stereo not drawn)
T/C (dose: 10.0 mg/kg/injection, schedule: Q01DX010 (ip), vehicle: carboxymethylcellulose (CMC)): 65 % of control | T/C (dose: 20.0 mg/kg/injection, schedule: Q01DX010 (ip), vehicle: carboxymethylcellulose (CMC)): 50 % of control | T/C (dose: 40.0 mg/kg/injection, schedule: Q01DX010 (ip), vehicle: carboxymethylcellulose (CMC)): 32 % of control

CC(=O)OCC1OC(n2ncc(=O)[nH]c2=O)C(OC(C)=O)C1OC(C)=O (stereo not drawn)
T/C (dose: 125.0 mg/kg/injection, schedule: Q01DX010 (ip), vehicle: other): 55 % of control | T/C (dose: 250.0 mg/kg/injection, schedule: Q01DX010 (ip), vehicle: other): 58 % of control | T/C (dose: 500.0 mg/kg/injection, schedule: Q01DX010 (ip), vehicle: other): 48 % of control

CC(=O)Nc1ccc2nc3ccc(NC(C)=O)cc3[n+](-c3ccccc3)c2c1
T/C [3]: 65 % of control | T/C [4]: 76 % of control | T/C [5]: 77 % of control

O=c1[nH]c(=O)n(C2CC(O)C(CO)O2)cc1Br (stereo not drawn)
T/C (dose: 31.25 mg/kg/injection, schedule: Q01DX010 (ip), vehicle: carboxymethylcellulose (CMC)): 80 % of control | T/C (dose: 62.5 mg/kg/injection, schedule: Q01DX010 (ip), vehicle: carboxymethylcellulose (CMC)): 86 % of control | T/C (dose: 125.0 mg/kg/injection, schedule: Q01DX010 (ip), vehicle: carboxymethylcellulose (CMC)): 74 % of control | T/C [6]: 88 % of control | T/C [7]: 74 % of control

CN(C)c1ccc(/C=C/c2ccnc3ccccc23)cc1
T/C (dose: 2.0 mg/kg/injection, schedule: Q01DX010 (ip), vehicle: carboxymethylcellulose (CMC)): 117 % of control | T/C (dose: 4.0 mg/kg/injection, schedule: Q01DX010 (ip), vehicle: water): 81 % of control | T/C (dose: 16.0 mg/kg/injection, schedule: Q01DX010 (ip), vehicle: carboxymethylcellulose (CMC)): 89 % of control and 99 % of control | T/C (dose: 16.0 mg/kg/injection, schedule: Q01DX010 (ip), vehicle: water): 78 % of control | T/C (dose: 32.0 mg/kg/injection, schedule: Q01DX010 (ip), vehicle: carboxymethylcellulose (CMC)): 28 % of control

N=C(N)c1ccc(Nc2ccc(C(=N)N)cc2)cc1
T/C (dose: 6.25 mg/kg/injection, schedule: Q01DX010 (ip), vehicle: methylcellulose (MC)): 116 % of control | T/C (dose: 12.5 mg/kg/injection, schedule: Q01DX010 (ip), vehicle: methylcellulose (MC)): 105 % of control

CC/C(=C(/CC)c1ccc(O)cc1)c1ccc(O)cc1
T/C (dose: 62.5 mg/kg/injection, schedule: Q01DX010 (sc), vehicle: steriod suspending solution): 105 % of control

COC1=C(N)C(=O)c2nc(-c3nc(C(=O)O)c(C)c(-c4ccc(OC)c(OC)c4O)c3N)ccc2C1=O
T/C (dose: 0.02 mg/kg/injection, schedule: Q01DX010 (ip), vehicle: other): 97 % of control | T/C [1]: 66 % of control | T/C [2]: 71 % of control | T/C (dose: 0.17 mg/kg/injection, schedule: Q01DX010 (ip), vehicle: other): 44 % of control | T/C (dose: 0.34 mg/kg/injection, schedule: Q01DX010 (ip), vehicle: other): 13 % of control

Nc1nc2n[nH]nc2c(=O)[nH]1
T/C (dose: 12.5 mg/kg/injection, schedule: Q01DX010 (ip), vehicle: other): 113 % of control | T/C (dose: 75.0 mg/kg/injection, schedule: Q01DX010 (ip), vehicle: other): 58 % of control | T/C (dose: 100.0 mg/kg/injection, schedule: Q01DX010 (ip), vehicle: other): 83 % of control

CN(C)c1ccc(Nc2c3ccccc3nc3ccccc23)cc1
T/C [8]: 88 % of control | T/C [4]: 115 % of control | T/C [9]: 67 % of control

C[C@@H]1C[C@H]2CC[C@H](O2)[C@H](C)C(=O)O[C@@H](C)C[C@@H]2CC[C@@H](O2)[C@@H](C)C(=O)O[C@H](C)C[C@H]2CC[C@H](O2)[C@H](C)C(=O)O[C@@H](C)C[C@@H]2CC[C@@H](O2)[C@@H](C)C(=O)O1
T/C [5]: 110 % of control | T/C [9]: 120 % of control | T/C (dose: 200.0 mg/kg/injection, schedule: Q01DX010 (ip), vehicle: carboxymethylcellulose (CMC)): 99 % of control

Nc1nc(SCc2ccccc2)c2[nH]cnc2n1
T/C (dose: 0.3 mg/kg/injection, schedule: Q01DX010 (ip), vehicle: carboxymethylcellulose (CMC)): 94 % of control | T/C (dose: 1.2 mg/kg/injection, schedule: Q01DX010 (ip), vehicle: carboxymethylcellulose (CMC)): 81 % of control | T/C (dose: 2.4 mg/kg/injection, schedule: Q01DX010 (ip), vehicle: carboxymethylcellulose (CMC)): 119 % of control | T/C (dose: 4.7 mg/kg/injection, schedule: Q01DX010 (ip), vehicle: carboxymethylcellulose (CMC)): 9 % of control

O=CN(O)CC(=O)O
T/C (dose: 62.5 mg/kg/injection, schedule: Q01DX011 (ip), vehicle: carboxymethylcellulose (CMC)): 124 % of control | T/C (dose: 125.0 mg/kg/injection, schedule: Q01DX011 (ip), vehicle: carboxymethylcellulose (CMC)): 76 % of control | T/C (dose: 250.0 mg/kg/injection, schedule: Q01DX011 (ip), vehicle: carboxymethylcellulose (CMC)): 74 % of control | T/C [6]: 89 % of control | T/C (dose: 500.0 mg/kg/injection, schedule: Q01DX011 (ip), vehicle: carboxymethylcellulose (CMC)): 56 % of control | T/C [7]: 63 % of control

N[C@@H](Cc1ccc(N(CCCl)CCCl)cc1)C(=O)O
T/C (dose: 0.3 mg/kg/injection, schedule: Q01DX010 (ip), vehicle: saline): 48 % of control | T/C (dose: 0.63 mg/kg/injection, schedule: Q01DX010 (ip), vehicle: saline): 75 % of control | T/C (dose: 1.25 mg/kg/injection, schedule: Q01DX010 (ip), vehicle: saline): 52 % of control

C[C@H]1C(=O)O[C@@H]2CCN3CC=C(COC(=O)[C@](C)(O)[C@@]1(C)O)[C@H]23
T/C (dose: 3.75 mg/kg/injection, schedule: Q01DX010 (ip), vehicle: carboxymethylcellulose (CMC)): 86 % of control | T/C (dose: 7.5 mg/kg/injection, schedule: Q01DX010 (ip), vehicle: carboxymethylcellulose (CMC)): 56 % of control | T/C (dose: 15.0 mg/kg/injection, schedule: Q01DX010 (ip), vehicle: carboxymethylcellulose (CMC)): 30 % of control | T/C (dose: 30.0 mg/kg/injection, schedule: Q01DX010 (ip), vehicle: carboxymethylcellulose (CMC)): 36 % of control and 44 % of control | T/C (dose: 60.0 mg/kg/injection, schedule: Q01DX010 (ip), vehicle: carboxymethylcellulose (CMC)): 6 % of control and 17 % of control

Cn1c(N)nc2nc[nH]c2c1=S
T/C (dose: 6.3 mg/kg/injection, schedule: Q01DX010 (ip), vehicle: carboxymethylcellulose (CMC)): 118 % of control | T/C [3]: 105 % of control | T/C [4]: 116 % of control | T/C [5]: 98 % of control | T/C [9]: 76 % of control

NC(Cc1ccc(N(CCCl)CCCl)cc1)C(=O)O (stereo not drawn)
T/C (dose: 0.08 mg/kg/injection, schedule: Q01DX010 (ip), vehicle: carboxymethylcellulose (CMC)): 99 % of control | T/C (dose: 0.16 mg/kg/injection, schedule: Q01DX010 (ip), vehicle: carboxymethylcellulose (CMC)): 107 % of control | T/C [10]: 79 % of control | T/C [11]: 9 % of control

CN(Cc1cnc2nc(N)nc(N)c2n1)c1c(Cl)cc(C(=O)NC(CCC(=O)O)C(=O)O)cc1Cl (stereo not drawn)
T/C [8]: 93 % of control | T/C [3]: 112 % of control | T/C [4]: 79 % of control and 97 % of control | T/C [5]: 71 % of control

C[C@]12CCC(=O)C[C@H]1CC[C@@H]1[C@@H]2CC[C@@]2(C)[C@H]1CC[C@]2(C)O
T/C (dose: 500.0 mg/kg/injection, schedule: Q01DX010 (sc), vehicle: steriod suspending solution): 105 % of control and 119 % of control | T/C (dose: 1000.0 mg/kg/injection, schedule: Q01DX010 (sc), vehicle: steriod suspending solution): 96 % of control

NC(=O)N(CCCl)N=O
T/C (dose: 1.75 mg/kg/injection, schedule: Q01DX010 (ip), vehicle: carboxymethylcellulose (CMC)): 93 % of control | T/C (dose: 3.5 mg/kg/injection, schedule: Q01DX010 (ip), vehicle: carboxymethylcellulose (CMC)): 105 % of control | T/C (dose: 7.0 mg/kg/injection, schedule: Q01DX010 (ip), vehicle: carboxymethylcellulose (CMC)): 102 % of control

Nc1nc(=S)c2ncn(C3OC(CO)C(O)C3O)c2[nH]1 (stereo not drawn)
T/C (dose: 0.31 mg/kg/injection, schedule: Q01DX010 (ip), vehicle: carboxymethylcellulose (CMC)): 63 % of control | T/C [10]: 31 % of control | T/C [11]: 7 % of control | T/C (dose: 2.5 mg/kg/injection, schedule: Q01DX010 (ip), vehicle: carboxymethylcellulose (CMC)): 1 % of control
